Assay results taken from patent publication US20110046040A1, “Microorganism-inactivating agent” (CHISSO CORPORATION, priority 2009, published 2011).

Experiments:
Type in all cases: cell-based
[1] = system: Bacillus cereus; experiment: inactivation of microorganisms in water, number of cells in supernatant; settings: for number of cells 2 hours later: 10 ppm, pH 8, initial 9.5 × 10^4
Method: (§1) Each test microbe was inoculated to nutrient broth and cultured with shaking at the optimum temperature of the test microbe until the late logarithmic phase. From the microbe culture, the microbe was collected, and the collected microbe was washed with 1.5 mL of physiological saline 2 to 3 times (centrifugation at 13000 rpm for 1 minute) and suspended in 1.5 mL of physiological saline. From the suspension, a 1 mL aliquot was recovered, and this was added to 9 mL of sterile water, followed by sufficient stirring of the resulting suspension (this was used as 10^−1 dilution). From the 10^−1 dilution, 10^−2 to 10^−8 dilutions were sequentially prepared. Each dilution was smeared on a film medium (Sanita-kun; for E. coli and coliform bacteria, for Staphylococcus aureus, for Salmonella, for aerobic bacteria or for fungi: Chisso Corporation) in an amount of 1 mL, followed by culturing at the optimum temperature of the test microbe for 24 to 72 hours and measurement of the number of cells on the film medium.
(§2) To a sterilized beaker, 500 mL of sterilized water was placed, and 0.20 mL of microbe culture of 10^6 to 10^10 cells/mL was inoculated thereto, to attain an initial cell number of 10^3 to 10^7 cells/mL. Unless otherwise specified, the pH was 6 to 8. After stirring the suspension gently for 5 minutes, PGα21Ca (Nippon Poly-Glu Co., Ltd.) and/or a microbiostatic agent or microbicide was/were added thereto such that a predetermined final concentration(s) was/were attained. After gentle stirring at room temperature for 10 to 15 minutes, the suspension was left to stand for a predetermined length of time. The supernatant was collected and diluted appropriately in an antimicrobial agent-inactivating medium (BHI medium or the like), and 1 mL each of the resulting diluent was smeared on a film medium. Culturing was carried out at the optimum temperature of each test microbe for 24 to 72 hours and the number of cells (cells/mL) on the film medium was measured.

[2] = system: Bacillus subtilis; experiment: as above; settings: for number of cells 2 hours later: 10 ppm, pH 8, initial 6.0 × 10^4
Method: as §1, §2

[3] = system: Escherichia coli; experiment: as above
Method: as §1, §2

[4] = system: Klebsiella pneumoniae; experiment: as above; settings: for number of cells 2 hours later: 10 ppm, pH 8, initial 1.3 × 10^5
Method: as §1, §2

[5] = system: Listeria monocytogenes; experiment: as above; settings: for number of cells 2 hours later: 10 ppm, pH 8, initial 2.0 × 10^4
Method: as §1, §2

[6] = system: Pseudomonas aeruginosa; experiment: as above; settings: for number of cells 2 hours later: 10 ppm, pH 8, initial 2.0 × 10^5
Method: as §1, §2

[7] = system: Salmonella choleraesuis; experiment: as above
Method: as §1, §2

[8] = system: Staphylococcus aureus; experiment: as above
Method: as §1, §2

[9] = system: Escherichia coli; experiment: inactivation with further addition of the microorganism after predetermined periods; settings: ε-poly-L-lysine 5 ppm
Method: as §1, §2
(§3) (3) The inactivation effect of ε-poly-L-lysine, which is a microbicide related to the microorganism-inactivating agent of the present invention, upon its single application to water containing Escherichia coli, Salmonella or Staphylococcus, followed by further addition of the respective microorganisms after predetermined periods of time was studied. The addition of the microorganisms was carried out at 24, 48, 72 and 144 hours after sampling. ε-poly-L-lysine was added at a concentration of 5 ppm. […]

[10] = system: Salmonella enterica; experiment: as above; settings: ε-poly-L-lysine 5 ppm
Method: as §1, §2, §3

[11] = system: Staphylococcus aureus; experiment: as above; settings: ε-poly-L-lysine 5 ppm
Method: as §1, §2, §3

[12] = 10 ppm, pH 8, initial 5.8 × 10^4
[13] = 10 ppm, pH 8, initial 4.7 × 10^4
[14] = 10 ppm, pH 8, initial 4.3 × 10^4
[15] = ε-poly-L-lysine 10 ppm, 0 minute later 7.5 × 10^4
[16] = ε-poly-L-lysine 10 ppm, 0 minute later 2.9 × 10^4
[17] = ε-poly-L-lysine 5 ppm, initial 3.2 × 10^7
[18] = ε-poly-L-lysine 10 ppm, 0 minute later 2.5 × 10^6
[19] = ε-poly-L-lysine 10 ppm, initial 3.2 × 10^7
[20] = ε-poly-L-lysine 10 ppm, 0 minute later 3.3 × 10^5
[21] = ε-poly-L-lysine 10 ppm, 0 minute later 8.1 × 10^4
[22] = ε-poly-L-lysine 10 ppm, 0 minute later 6.2 × 10^5
[23] = ε-poly-L-lysine 5 ppm, initial 1.2 × 10^7
[24] = ε-poly-L-lysine 10 ppm, 0 minute later 3.2 × 10^5
[25] = ε-poly-L-lysine 10 ppm, initial 1.2 × 10^7
[26] = ε-poly-L-lysine 10 ppm, 0 minute later 2.3 × 10^4
[27] = further addition of microbe at 24 h (1.3 × 10^8)
[28] = further addition of microbe at 48 h (5.0 × 10^6)
[29] = further addition of microbe at 72 h (6.6 × 10^6)
[30] = further addition of microbe at 144 h (1.2 × 10^7)
[31] = further addition of microbe at 24 h (3.2 × 10^7)
[32] = further addition of microbe at 48 h (3.6 × 10^6)
[33] = further addition of microbe at 72 h (3.0 × 10^6)
[34] = further addition of microbe at 144 h (3.1 × 10^6)
[35] = further addition of microbe at 24 h (2.2 × 10^7)
[36] = further addition of microbe at 48 h (1.4 × 10^6)
[37] = further addition of microbe at 72 h (6.1 × 10^6)
[38] = further addition of microbe at 144 h (7.9 × 10^6)

Q: With protamine sulfate as the substance, how does the “number of cells 2 hours later” value [1] read?
A: Its value is 300 cells/mL.

Q: What about the “number of cells 2 hours later” value [2] of the same substance?
A: The value was 10 cells/mL.

Q: And the “number of cells 2 hours later” value [3, 12]?
A: Its value is <10 cells/mL.

Q: What about the “number of cells 2 hours later” value [4] of the same substance?
A: Its value is 10 cells/mL.

Q: And the “number of cells 2 hours later” value [5]?
A: The value was <10 cells/mL.

Q: What about the “number of cells 2 hours later” value [6] of the same substance?
A: The value was <10 cells/mL.

Q: What about the “number of cells 2 hours later” value [7, 13] of the same substance?
A: Its value is <10 cells/mL.

Q: And the “number of cells 2 hours later” value [8, 14]?
A: Its value is <10 cells/mL.

Q: What does the source list for ε-poly-L-lysine?
A: number of cells 2 hours later [1]: 290 cells/mL; number of cells 5 minutes later [1, 15]: 140 cells/mL; number of cells 15 minutes later [1, 15]: 110 cells/mL; number of cells 60 minutes later [1, 15]: 80 cells/mL; number of cells 120 minutes later [1, 15]: <10 cells/mL; number of cells 2 hours later [2]: <10 cells/mL; number of cells 5 minutes later [2, 16]: 4 × 10^3 cells/mL; number of cells 15 minutes later [2, 16]: 30 cells/mL; number of cells 60 minutes later [2, 16]: <10 cells/mL; number of cells 120 minutes later [2, 16]: <10 cells/mL; number of cells 2 hours later [3, 12]: <10 cells/mL; number of cells 0.5 hour later [3, 17]: 3.2 × 10^3 cells/mL; number of cells 1 hour later [3, 17]: <10 cells/mL; number of cells 2 hours later [3, 17]: <10 cells/mL; number of cells 5 minutes later [3, 18]: 1.32 × 10^4 cells/mL; number of cells 15 minutes later [3, 18]: 10 cells/mL; number of cells 60 minutes later [3, 18]: <10 cells/mL; number of cells 120 minutes later [3, 18]: <10 cells/mL; number of cells 0.5 hour later [3, 19]: 300 cells/mL; number of cells 1 hour later [3, 19]: <10 cells/mL; number of cells 2 hours later [3, 19]: <10 cells/mL; number of cells 2 hours later [4]: <10 cells/mL; number of cells 5 minutes later [4, 20]: 1.8 × 10^4 cells/mL; number of cells 15 minutes later [4, 20]: 1.87 × 10^3 cells/mL; number of cells 60 minutes later [4, 20]: 10 cells/mL; number of cells 120 minutes later [4, 20]: <10 cells/mL; number of cells 2 hours later [5]: <10 cells/mL; number of cells 5 minutes later [5, 21]: 780 cells/mL; number of cells 15 minutes later [5, 21]: 40 cells/mL; number of cells 60 minutes later [5, 21]: 20 cells/mL; number of cells 120 minutes later [5, 21]: <10 cells/mL; number of cells 2 hours later [6]: <10 cells/mL; number of cells 5 minutes later [6, 22]: 2.16 × 10^4 cells/mL; number of cells 15 minutes later [6, 22]: 240 cells/mL; number of cells 60 minutes later [6, 22]: 20 cells/mL; number of cells 120 minutes later [6, 22]: <10 cells/mL; number of cells 2 hours later [7, 13]: <10 cells/mL; number of cells 0.5 hour later [7, 23]: 50 cells/mL; number of cells 1 hour later [7, 23]: 20 cells/mL; number of cells 2 hours later [7, 23]: <10 cells/mL; number of cells 5 minutes later [7, 24]: 480 cells/mL; number of cells 15 minutes later [7, 24]: 1.4 × 10^3 cells/mL; number of cells 60 minutes later [7, 24]: 120 cells/mL; number of cells 120 minutes later [7, 24]: <10 cells/mL; number of cells 0.5 hour later [7, 25]: <10 cells/mL; number of cells 1 hour later [7, 25]: <10 cells/mL; number of cells 2 hours later [7, 25]: <10 cells/mL; number of cells 2 hours later [8, 14]: <10 cells/mL; number of cells 0.5 hour later [8, 23]: 4.0 × 10^4 cells/mL; number of cells 1 hour later [8, 23]: 2.2 × 10^4 cells/mL; number of cells 2 hours later [8, 23]: 4.2 × 10^3 cells/mL; number of cells 5 minutes later [8, 26]: 8.1 × 10^3 cells/mL; number of cells 15 minutes later [8, 26]: 2.55 × 10^3 cells/mL; number of cells 60 minutes later [8, 26]: 2 × 10^3 cells/mL; number of cells 120 minutes later [8, 26]: 440 cells/mL; number of cells 0.5 hour later [8, 25]: 5.0 × 10^4 cells/mL; number of cells 1 hour later [8, 25]: 7.0 × 10^3 cells/mL; number of cells 2 hours later [8, 25]: 4.8 × 10^3 cells/mL; number of cells, elapsed time 26 hours [9, 27]: <10 cells/mL; number of cells, elapsed time 28 hours [9, 27]: <10 cells/mL; number of cells, elapsed time 48 hours [9, 27]: <10 cells/mL; number of cells, elapsed time 50 hours [9, 28]: <10 cells/mL; number of cells, elapsed time 52 hours [9, 28]: <10 cells/mL; number of cells, elapsed time 72 hours [9, 28]: <10 cells/mL; number of cells, elapsed time 74 hours [9, 29]: <10 cells/mL; number of cells, elapsed time 76 hours [9, 29]: <10 cells/mL; number of cells, elapsed time 96 hours [9, 29]: <10 cells/mL; number of cells, elapsed time 144 hours [9, 29]: <10 cells/mL; number of cells, elapsed time 146 hours [9, 30]: <10 cells/mL; number of cells, elapsed time 148 hours [9, 30]: <10 cells/mL; number of cells, elapsed time 168 hours [9, 30]: <10 cells/mL; number of cells, elapsed time 2 hours ([9]; initial 1.0 × 10^6): <10 cells/mL; number of cells, elapsed time 4 hours ([9]; initial 1.0 × 10^6): <10 cells/mL; number of cells, elapsed time 24 hours ([9]; initial 1.0 × 10^6): <10 cells/mL; number of cells, elapsed time 26 hours [10, 31]: <10 cells/mL; number of cells, elapsed time 28 hours [10, 31]: <10 cells/mL; number of cells, elapsed time 48 hours [10, 31]: <10 cells/mL; number of cells, elapsed time 50 hours [10, 32]: <10 cells/mL; number of cells, elapsed time 52 hours [10, 32]: <10 cells/mL; number of cells, elapsed time 72 hours [10, 32]: <10 cells/mL; number of cells, elapsed time 74 hours [10, 33]: <10 cells/mL; number of cells, elapsed time 76 hours [10, 33]: <10 cells/mL; number of cells, elapsed time 96 hours [10, 33]: <10 cells/mL; number of cells, elapsed time 144 hours [10, 33]: <10 cells/mL; number of cells, elapsed time 146 hours [10, 34]: <10 cells/mL; number of cells, elapsed time 148 hours [10, 34]: <10 cells/mL; number of cells, elapsed time 168 hours [10, 34]: <10 cells/mL; number of cells, elapsed time 2 hours ([10]; initial 3.0 × 10^6): <10 cells/mL; number of cells, elapsed time 4 hours ([10]; initial 3.0 × 10^6): <10 cells/mL; number of cells, elapsed time 24 hours ([10]; initial 3.0 × 10^6): <10 cells/mL; number of cells, elapsed time 26 hours [11, 35]: 2.2 × 10^6 cells/mL; number of cells, elapsed time 28 hours [11, 35]: 2.1 × 10^5 cells/mL; number of cells, elapsed time 48 hours [11, 35]: <10 cells/mL; number of cells, elapsed time 50 hours [11, 36]: 2.5 × 10^4 cells/mL; number of cells, elapsed time 52 hours [11, 36]: 1.2 × 10^4 cells/mL; number of cells, elapsed time 72 hours [11, 36]: <10 cells/mL; number of cells, elapsed time 74 hours [11, 37]: 1.7 × 10^3 cells/mL; number of cells, elapsed time 76 hours [11, 37]: 20 cells/mL; number of cells, elapsed time 96 hours [11, 37]: <10 cells/mL; number of cells, elapsed time 144 hours [11, 37]: <10 cells/mL; number of cells, elapsed time 146 hours [11, 38]: 1.0 × 10^3 cells/mL; number of cells, elapsed time 148 hours [11, 38]: 90 cells/mL; number of cells, elapsed time 168 hours [11, 38]: <10 cells/mL; number of cells, elapsed time 2 hours ([11]; initial 2.0 × 10^6): <10 cells/mL; number of cells, elapsed time 4 hours ([11]; initial 2.0 × 10^6): <10 cells/mL; number of cells, elapsed time 24 hours ([11]; initial 2.0 × 10^6): <10 cells/mL
